The assay concerns the target human factor Xa (Homo sapiens, UniProt P00742). Kind of assay: biochemical. The following applies: human factor Xa 3 nM, chromogenic substrate S-2222, HNPT buffer pH 7.8, room temperature; apparent Ki calculated from IC50 according to Cheng and Prusoff.

human factor Xa, sequence (P00742 235-488 limits assumed): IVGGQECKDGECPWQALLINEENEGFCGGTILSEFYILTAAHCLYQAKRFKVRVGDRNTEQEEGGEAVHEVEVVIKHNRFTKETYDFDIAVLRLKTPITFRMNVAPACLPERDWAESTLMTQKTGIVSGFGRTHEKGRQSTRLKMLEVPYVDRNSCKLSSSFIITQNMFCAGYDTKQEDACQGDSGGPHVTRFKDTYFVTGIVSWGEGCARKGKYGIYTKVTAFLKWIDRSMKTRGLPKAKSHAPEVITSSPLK
human factor Xa, sequence (P00742 41-179 partner limits assumed): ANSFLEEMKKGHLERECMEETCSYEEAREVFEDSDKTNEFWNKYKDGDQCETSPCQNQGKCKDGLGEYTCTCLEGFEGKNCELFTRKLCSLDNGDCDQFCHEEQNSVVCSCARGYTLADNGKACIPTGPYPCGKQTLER
Procedure: Factor Xa activity was measured spectrophotometrically in microtiter plates in a final volume of 150 μl using the following conditions: Inhibition of human factor Xa (Enzyme Research Laboratories) was tested at an enzyme concentration of 3 nM using the chromogenic substrate S-2222 (Chromogenix AB, Mölndal, Sweden) at 200 nM. The reaction kinetics of the enzyme and the substrate were linear with both time and the enzyme concentration. The inhibitors were dissolved in DMSO and tested at various concentrations up to 100 μM. The inhibitors were diluted using HNPT buffer consisting of HEPES 100 mM, NaCl 140 mM, PEG 6000 0.1% and Tween 80 0.02%, pH 7.8. […]
The velocity of the reaction was determined by the autoreader from the slope of the linear regression fit to 7 time points (1 minute). The initial velocity for each inhibitor concentration was determined by the slope of at least 4 time points in the linear phase by a linear regression fit (mOD/min^2). Apparent dissociation constants Ki were calculated according to Cheng and Prusoff [Cheng, Y. C.; Prusoff, W. H. Relationship between the inhibition constant (Ki) and the concentration of the inhibitor that causes 50 percent inhibition (IC50) of an enzyme reaction. Biochem. Pharmacol. 1973, 22, 3099-3108.] based on the IC50 and the respective Km, determined previously (Ki=IC50/(I+S/Km)). […]

`CN1CCC(N2CCN(C(=O)Cc3csc(NC(=O)c4ccc(Br)s4)n3)CC2)CC1` [Ex. 47.3, 5-bromo-thiophene-2-carboxylic acid (4-{2-[4-(1-methyl-piperidin-4-yl)-piperazin-1-yl]-2-oxo-ethyl}-thiazol-2-yl)-amide]: the Ki is 0.026 µM.

The values are drawn from US7718659B2, “Heteroarylacetamide inhibitors of factor Xa” (priority 2004, dated 2010).
